In PMC7615677 (Science translational medicine, 2023):
Where two headings read alike, the source gives them in different places.

What was measured:
In vivo pharmacokinetics = assay: In vivo pharmacokinetics; design: species or system female golden Syrian hamsters; conditions: for AUC(0-t): read-out: AUC0-24 (first dose); for AUC: read-out: AUC96-120 (last dose)
Experimental: Additional PK studies were also conducted by WuXi AppTec Co, Ltd (Shanghai, China) according to protocols reviewed and approved by DNDi. […] IV and oral formulations for rats, mice and hamsters were the same as described above. For dogs, the IV dose was administered in saline containing 2% DMSO and 3% Solutol HS-15 and the oral formulation was as described above. Blood was sampled up to 48 h post-dose into vials containing potassium EDTA as an anticoagulant, proteins were precipitated with acetonitrile and plasma was separated and assayed by LC-MS.
Single dose pharmacokinetic parameters (clearance, volume of distribution and half-life) were initially estimated using non-compartmental methods and oral bioavailability was calculated using the ratio of the dose corrected AUC after oral dosing relative to that after IV administration. […] Where a full concentration versus time profile was obtained from a single animal, parameters were estimated for each animal and mean and standard deviations calculated. In the case of mice where sparse sampling was used with multiple animals per time point, the data analysis was conducted using the mean profile.

[1] = biological target: T1, norepinephrine transporter (Homo sapiens, UniProt P23975); assay: In vitro pharmacology panel (Eurofins); format: binding; conditions: read-out: activity (% of DMSO control)
T1 construct: purchased Eurofins (Cerep/DiscoverX SafetyScreen44 in vitro pharmacology panel)
T1 sequence (P23975 whole entry): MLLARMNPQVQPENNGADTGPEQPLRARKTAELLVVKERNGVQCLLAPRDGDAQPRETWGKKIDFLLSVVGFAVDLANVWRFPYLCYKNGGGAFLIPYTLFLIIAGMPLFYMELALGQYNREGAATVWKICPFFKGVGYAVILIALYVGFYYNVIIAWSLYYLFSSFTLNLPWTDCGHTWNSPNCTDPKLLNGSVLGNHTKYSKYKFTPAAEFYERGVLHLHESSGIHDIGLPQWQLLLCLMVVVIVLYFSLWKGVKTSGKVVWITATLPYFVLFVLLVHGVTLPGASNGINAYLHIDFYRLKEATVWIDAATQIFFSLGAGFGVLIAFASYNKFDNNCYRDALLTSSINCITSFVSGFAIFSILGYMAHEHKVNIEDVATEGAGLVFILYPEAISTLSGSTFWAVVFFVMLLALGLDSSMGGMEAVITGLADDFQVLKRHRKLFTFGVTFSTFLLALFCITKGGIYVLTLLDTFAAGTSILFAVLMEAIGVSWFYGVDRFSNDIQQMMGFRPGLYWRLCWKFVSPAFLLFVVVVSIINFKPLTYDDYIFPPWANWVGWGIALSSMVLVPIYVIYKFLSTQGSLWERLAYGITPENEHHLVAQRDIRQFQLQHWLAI
Text: (§1) Listed values represent the percent change relative to the DMSO control activity. When an IC50 had to be determined, eight different concentrations were included. All values are the mean of assay readout duplicates.

μ (MOP) = biological target: T2, μ (MOP) (Homo sapiens, UniProt P35372); assay: In vitro pharmacology panel (Eurofins); format: binding; conditions: read-out: activity (% of DMSO control)
T2 construct: purchased Eurofins (Cerep/DiscoverX SafetyScreen44 in vitro pharmacology panel)
Text: as §1

ETA = biological target: T3, ETA (Homo sapiens, UniProt P25101); assay: In vitro pharmacology panel (Eurofins); format: binding; conditions: read-out: activity (% of DMSO control)
T3 construct: purchased Eurofins (Cerep/DiscoverX SafetyScreen44 in vitro pharmacology panel)
Text: as §1

A2A = biological target: T4, A2A (Homo sapiens, UniProt P29274); assay: In vitro pharmacology panel (Eurofins); format: binding; conditions: read-out: activity (% of DMSO control)
T4 construct: purchased Eurofins (Cerep/DiscoverX SafetyScreen44 in vitro pharmacology panel)
Text: as §1

GR = biological target: T5, GR (Homo sapiens, UniProt P04150); assay: In vitro pharmacology panel (Eurofins); format: binding; conditions: read-out: activity (% of DMSO control)
T5 construct: purchased Eurofins (Cerep/DiscoverX SafetyScreen44 in vitro pharmacology panel)
Text: as §1

D1 = biological target: T6, D1 (Homo sapiens, UniProt P21728); assay: In vitro pharmacology panel (Eurofins); format: binding; conditions: read-out: activity (% of DMSO control)
T6 construct: purchased Eurofins (Cerep/DiscoverX SafetyScreen44 in vitro pharmacology panel)
Text: as §1

5-HT2A = biological target: T7, 5-HT2A (Homo sapiens, UniProt P28223); assay: In vitro pharmacology panel (Eurofins); format: binding; conditions: read-out: activity (% of DMSO control)
T7 construct: purchased Eurofins (Cerep/DiscoverX SafetyScreen44 in vitro pharmacology panel)
Text: as §1

5-HT3 = biological target: T8, 5-HT3 (Homo sapiens, UniProt P46098); assay: In vitro pharmacology panel (Eurofins); format: binding; conditions: read-out: activity (% of DMSO control)
T8 construct: purchased Eurofins (Cerep/DiscoverX SafetyScreen44 in vitro pharmacology panel)
T8 sequence (P46098 24-478): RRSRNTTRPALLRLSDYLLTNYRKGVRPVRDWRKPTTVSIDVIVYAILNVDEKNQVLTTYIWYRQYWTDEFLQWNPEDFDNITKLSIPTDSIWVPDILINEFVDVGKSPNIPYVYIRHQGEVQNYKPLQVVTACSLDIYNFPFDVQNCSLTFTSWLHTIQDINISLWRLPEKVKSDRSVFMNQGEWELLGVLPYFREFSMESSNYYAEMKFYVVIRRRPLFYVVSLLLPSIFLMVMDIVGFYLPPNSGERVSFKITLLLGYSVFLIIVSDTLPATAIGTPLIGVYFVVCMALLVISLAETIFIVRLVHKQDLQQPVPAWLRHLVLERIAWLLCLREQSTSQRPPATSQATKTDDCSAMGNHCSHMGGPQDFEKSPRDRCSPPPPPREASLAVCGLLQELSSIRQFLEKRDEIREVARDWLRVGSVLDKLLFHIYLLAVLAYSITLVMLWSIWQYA
Text: as §1

5-HT2B = biological target: T9, 5-HT2B (Homo sapiens, UniProt P41595); assay: In vitro pharmacology panel (Eurofins); format: binding; conditions: read-out: activity (% of DMSO control)
T9 construct: purchased Eurofins (Cerep/DiscoverX SafetyScreen44 in vitro pharmacology panel)
Text: as §1

κ (KOP) = biological target: T10, κ (KOP) (Rattus norvegicus, UniProt P34975); assay: In vitro pharmacology panel (Eurofins); format: binding; conditions: read-out: activity (% of DMSO control)
T10 construct: purchased Eurofins (Cerep/DiscoverX SafetyScreen44 in vitro pharmacology panel)
Text: as §1

M3 = biological target: T11, M3 (Homo sapiens, UniProt P20309); assay: In vitro pharmacology panel (Eurofins); format: binding; conditions: read-out: activity (% of DMSO control)
T11 construct: purchased Eurofins (Cerep/DiscoverX SafetyScreen44 in vitro pharmacology panel)
T11 sequence (P20309 whole entry): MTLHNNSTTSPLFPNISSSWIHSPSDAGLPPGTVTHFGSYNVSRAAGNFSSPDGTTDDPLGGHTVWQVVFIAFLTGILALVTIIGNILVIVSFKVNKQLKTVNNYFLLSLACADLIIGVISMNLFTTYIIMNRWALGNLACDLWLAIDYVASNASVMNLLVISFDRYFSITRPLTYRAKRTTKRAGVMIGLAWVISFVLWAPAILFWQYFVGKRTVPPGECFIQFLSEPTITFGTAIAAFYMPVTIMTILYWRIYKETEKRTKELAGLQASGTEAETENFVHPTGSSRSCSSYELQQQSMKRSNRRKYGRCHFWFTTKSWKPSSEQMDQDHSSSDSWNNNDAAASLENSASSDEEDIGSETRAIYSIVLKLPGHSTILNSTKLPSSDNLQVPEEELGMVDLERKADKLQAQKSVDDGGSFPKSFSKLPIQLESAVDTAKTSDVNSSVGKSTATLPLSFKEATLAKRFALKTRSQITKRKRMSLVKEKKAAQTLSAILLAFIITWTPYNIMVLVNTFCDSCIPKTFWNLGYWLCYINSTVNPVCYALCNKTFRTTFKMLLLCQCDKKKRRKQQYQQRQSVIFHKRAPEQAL
Text: as §1

dopamine transporter = biological target: T12, dopamine transporter (Homo sapiens, UniProt Q01959); assay: In vitro pharmacology panel (Eurofins); format: binding; conditions: read-out: activity (% of DMSO control)
T12 construct: purchased Eurofins (Cerep/DiscoverX SafetyScreen44 in vitro pharmacology panel)
Text: as §1

α2A = biological target: T13, α2A (Homo sapiens, UniProt P08913); assay: In vitro pharmacology panel (Eurofins); format: binding; conditions: read-out: activity (% of DMSO control)
T13 construct: purchased Eurofins (Cerep/DiscoverX SafetyScreen44 in vitro pharmacology panel)
Text: as §1

CB2 = biological target: T14, CB2 (Homo sapiens, UniProt P34972); assay: In vitro pharmacology panel (Eurofins); format: binding; conditions: read-out: activity (% of DMSO control)
T14 construct: purchased Eurofins (Cerep/DiscoverX SafetyScreen44 in vitro pharmacology panel)
Text: as §1

CB1 = biological target: T15, CB1 (Homo sapiens, UniProt P21554); assay: In vitro pharmacology panel (Eurofins); format: binding; conditions: read-out: activity (% of DMSO control)
T15 construct: purchased Eurofins (Cerep/DiscoverX SafetyScreen44 in vitro pharmacology panel)
Text: as §1

MAO-A = biological target: T16, MAO-A (Rattus norvegicus, UniProt P21396); assay: In vitro pharmacology panel (Eurofins); format: binding; conditions: read-out: activity (% of DMSO control)
T16 construct: purchased Eurofins (Cerep/DiscoverX SafetyScreen44 in vitro pharmacology panel)
Text: as §1

β1 = biological target: T17, β1 (Homo sapiens, UniProt P08588); assay: In vitro pharmacology panel (Eurofins); format: binding; conditions: read-out: activity (% of DMSO control)
T17 construct: purchased Eurofins (Cerep/DiscoverX SafetyScreen44 in vitro pharmacology panel)
Text: as §1

CCK1 (CCKA) = biological target: T18, CCK1 (CCKA) (Homo sapiens, UniProt P32238); assay: In vitro pharmacology panel (Eurofins); format: binding; conditions: read-out: activity (% of DMSO control)
T18 construct: purchased Eurofins (Cerep/DiscoverX SafetyScreen44 in vitro pharmacology panel)
Text: as §1

5-HT1B = biological target: T19, 5-HT1B (Rattus norvegicus, UniProt P28564); assay: In vitro pharmacology panel (Eurofins); format: binding; conditions: read-out: activity (% of DMSO control)
T19 construct: purchased Eurofins (Cerep/DiscoverX SafetyScreen44 in vitro pharmacology panel)
T19 sequence (P28564 whole entry): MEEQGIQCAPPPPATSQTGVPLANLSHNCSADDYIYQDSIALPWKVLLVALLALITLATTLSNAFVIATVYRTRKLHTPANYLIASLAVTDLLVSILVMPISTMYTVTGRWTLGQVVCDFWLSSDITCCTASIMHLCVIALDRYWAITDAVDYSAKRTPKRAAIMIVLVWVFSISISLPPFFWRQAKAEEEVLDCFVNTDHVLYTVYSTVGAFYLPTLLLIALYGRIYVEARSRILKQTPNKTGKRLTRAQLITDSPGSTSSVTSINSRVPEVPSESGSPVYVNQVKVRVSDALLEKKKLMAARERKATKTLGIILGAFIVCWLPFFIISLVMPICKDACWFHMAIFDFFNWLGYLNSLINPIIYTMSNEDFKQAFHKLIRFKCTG
Text: as §1

β2 = biological target: T20, β2 (Homo sapiens, UniProt P07550); assay: In vitro pharmacology panel (Eurofins); format: binding; conditions: read-out: activity (% of DMSO control)
T20 construct: purchased Eurofins (Cerep/DiscoverX SafetyScreen44 in vitro pharmacology panel)
Text: as §1

α1A = biological target: T21, α1A (Homo sapiens, UniProt P35348); assay: In vitro pharmacology panel (Eurofins); format: binding; conditions: read-out: activity (% of DMSO control)
T21 construct: purchased Eurofins (Cerep/DiscoverX SafetyScreen44 in vitro pharmacology panel)
Text: as §1

[2] = test system: Salmonella typhimurium strains TA1535, TA1537, TA98 and TA100, and Escherichia coli WP2 uvrA (pKM101); assay: Ames test; format: cell-based; conditions: absence or presence of rat liver S9
Experimental: Salmonella typhimurium strains TA1535, TA1537, TA98 and TA100, and Escherichia coli WP2 uvrA (pKM101) were employed. Positive controls were respectively sodium azide (2 μg/plate), 9-amino acridine (50 μg/plate), 2-nitrofluorene (1 μg/plate), sodium azide (2 μg/plate) and 4-nitroquinoline-1-oxide (2 μg/plate). The negative control was DMSO.

PDE4D2 = biological target: T22, PDE4D2 (Homo sapiens, UniProt Q08499); assay: In vitro pharmacology panel (Eurofins); format: biochemical
T22 construct: Eurofins (contract assay)
T22 sequence (Q08499 303-809 limits assumed): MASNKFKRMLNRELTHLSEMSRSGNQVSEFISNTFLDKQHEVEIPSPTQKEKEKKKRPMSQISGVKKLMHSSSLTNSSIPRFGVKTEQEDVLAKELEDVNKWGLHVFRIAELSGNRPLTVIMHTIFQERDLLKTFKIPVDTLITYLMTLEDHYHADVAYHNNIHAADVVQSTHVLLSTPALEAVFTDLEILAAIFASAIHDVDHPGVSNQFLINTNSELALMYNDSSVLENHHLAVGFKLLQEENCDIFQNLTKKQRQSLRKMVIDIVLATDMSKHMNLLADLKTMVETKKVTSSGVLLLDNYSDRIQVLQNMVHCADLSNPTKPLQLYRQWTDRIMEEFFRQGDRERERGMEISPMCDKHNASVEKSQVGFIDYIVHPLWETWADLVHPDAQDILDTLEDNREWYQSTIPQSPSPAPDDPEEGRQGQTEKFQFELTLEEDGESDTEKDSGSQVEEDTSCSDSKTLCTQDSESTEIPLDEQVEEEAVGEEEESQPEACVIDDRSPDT
Text: as §1

COX1 = biological target: T23, COX1 (Homo sapiens, UniProt P23219); assay: In vitro pharmacology panel (Eurofins); format: biochemical; conditions: read-out: activity (% of DMSO control)
T23 construct: purchased Eurofins (Cerep/DiscoverX SafetyScreen44 in vitro pharmacology panel)
Text: as §1

COX2 = biological target: T24, COX2 (Homo sapiens, UniProt P35354); assay: In vitro pharmacology panel (Eurofins); format: biochemical; conditions: read-out: activity (% of DMSO control)
T24 construct: purchased Eurofins (Cerep/DiscoverX SafetyScreen44 in vitro pharmacology panel)
Text: as §1

PDE3A = biological target: T25, PDE3A (Homo sapiens, UniProt Q14432); assay: In vitro pharmacology panel (Eurofins); format: biochemical
T25 construct: Eurofins (contract assay)
T25 sequence (Q14432 whole entry): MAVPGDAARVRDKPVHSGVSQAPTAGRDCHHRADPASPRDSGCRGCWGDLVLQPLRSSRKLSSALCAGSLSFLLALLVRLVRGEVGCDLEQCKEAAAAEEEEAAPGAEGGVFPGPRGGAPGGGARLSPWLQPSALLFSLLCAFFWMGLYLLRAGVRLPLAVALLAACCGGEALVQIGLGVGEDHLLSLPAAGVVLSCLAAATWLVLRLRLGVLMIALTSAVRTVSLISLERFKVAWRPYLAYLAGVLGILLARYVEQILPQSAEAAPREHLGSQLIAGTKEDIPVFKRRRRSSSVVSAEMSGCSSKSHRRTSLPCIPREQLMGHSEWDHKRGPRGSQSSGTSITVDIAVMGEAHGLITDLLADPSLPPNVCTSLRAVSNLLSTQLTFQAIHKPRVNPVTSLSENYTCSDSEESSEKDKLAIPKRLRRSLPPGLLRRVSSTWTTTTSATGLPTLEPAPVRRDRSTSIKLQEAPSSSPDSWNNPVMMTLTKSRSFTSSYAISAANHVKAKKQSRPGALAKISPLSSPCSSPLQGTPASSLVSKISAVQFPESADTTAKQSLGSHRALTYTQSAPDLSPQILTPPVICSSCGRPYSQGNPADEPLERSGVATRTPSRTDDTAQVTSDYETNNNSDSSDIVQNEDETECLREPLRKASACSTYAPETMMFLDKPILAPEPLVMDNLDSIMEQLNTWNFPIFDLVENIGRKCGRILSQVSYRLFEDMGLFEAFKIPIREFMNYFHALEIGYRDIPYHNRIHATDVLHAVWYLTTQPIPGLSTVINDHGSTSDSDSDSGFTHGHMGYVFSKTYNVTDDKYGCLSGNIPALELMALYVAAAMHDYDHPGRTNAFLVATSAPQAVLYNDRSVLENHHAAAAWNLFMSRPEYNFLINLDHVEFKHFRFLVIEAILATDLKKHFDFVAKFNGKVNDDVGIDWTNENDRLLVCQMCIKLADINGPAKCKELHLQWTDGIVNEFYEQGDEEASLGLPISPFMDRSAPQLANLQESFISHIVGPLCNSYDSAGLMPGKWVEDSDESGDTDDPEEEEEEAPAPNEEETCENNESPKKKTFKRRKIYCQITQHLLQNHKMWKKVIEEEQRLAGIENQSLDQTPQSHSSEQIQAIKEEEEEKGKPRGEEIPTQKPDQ
Text: as §1

acetylcholinesterase = biological target: T26, acetylcholinesterase (Homo sapiens, UniProt P22303); assay: In vitro pharmacology panel (Eurofins); format: biochemical; conditions: read-out: activity (% of DMSO control)
T26 construct: Eurofins (contract assay)
T26 sequence (P22303 32-614): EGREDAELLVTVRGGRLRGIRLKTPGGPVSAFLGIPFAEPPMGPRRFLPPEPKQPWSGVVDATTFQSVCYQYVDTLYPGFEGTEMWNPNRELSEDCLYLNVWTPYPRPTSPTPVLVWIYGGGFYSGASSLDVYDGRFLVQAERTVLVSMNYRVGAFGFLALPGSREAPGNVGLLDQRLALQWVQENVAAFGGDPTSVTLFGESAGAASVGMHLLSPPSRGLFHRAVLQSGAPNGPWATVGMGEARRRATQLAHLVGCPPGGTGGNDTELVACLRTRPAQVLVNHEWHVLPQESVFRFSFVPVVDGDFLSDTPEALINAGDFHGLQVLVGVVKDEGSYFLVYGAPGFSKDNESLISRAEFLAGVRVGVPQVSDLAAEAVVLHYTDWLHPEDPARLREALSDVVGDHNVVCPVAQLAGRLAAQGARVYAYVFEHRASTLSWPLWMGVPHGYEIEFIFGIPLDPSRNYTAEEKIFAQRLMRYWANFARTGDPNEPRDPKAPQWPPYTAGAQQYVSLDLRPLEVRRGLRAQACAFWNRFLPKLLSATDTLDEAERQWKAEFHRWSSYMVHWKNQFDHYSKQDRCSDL
Text: as §1

Lck kinase = biological target: T27, Lck kinase (Homo sapiens, UniProt P06239); assay: In vitro pharmacology panel (Eurofins); format: biochemical; conditions: read-out: activity (% of DMSO control)
T27 construct: purchased Eurofins (Cerep/DiscoverX SafetyScreen44 in vitro pharmacology panel)
T27 sequence (P06239 whole entry): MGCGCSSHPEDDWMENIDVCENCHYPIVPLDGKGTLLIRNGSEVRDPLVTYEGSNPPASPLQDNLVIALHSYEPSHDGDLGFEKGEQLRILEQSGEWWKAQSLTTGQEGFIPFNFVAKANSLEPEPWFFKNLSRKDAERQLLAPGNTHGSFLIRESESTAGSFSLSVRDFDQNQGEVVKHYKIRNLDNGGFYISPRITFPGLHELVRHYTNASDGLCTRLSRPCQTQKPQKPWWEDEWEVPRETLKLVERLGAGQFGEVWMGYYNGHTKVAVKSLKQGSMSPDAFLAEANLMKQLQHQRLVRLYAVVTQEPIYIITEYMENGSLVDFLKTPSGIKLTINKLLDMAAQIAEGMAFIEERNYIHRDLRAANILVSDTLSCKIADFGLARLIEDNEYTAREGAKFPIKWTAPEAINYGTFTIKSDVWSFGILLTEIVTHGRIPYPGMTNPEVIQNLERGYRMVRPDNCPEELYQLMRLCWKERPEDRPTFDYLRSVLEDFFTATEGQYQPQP
Text: as §1

[3] = female, golden Syrian, hamster, plasma, hamsters, oral 12.5 mg/kg qd, 5 days
[4] = female, golden Syrian, hamster, plasma, hamsters, oral 25 mg/kg qd, 5 days
[5] = 10 µM, read-out: activity (% of DMSO control)

## Cc1[nH]c2nc(N)nc(C)c2c1-c1ccc(C#N)c2c1OCO2 [DNDI-6174]
In vivo pharmacokinetics; [3]
  Cmax at 5 days: 3530 ng/mL
  AUC(0-t): 22900 ng·h/mL
  AUC: 30200 ng·h/mL
In vivo pharmacokinetics; [4]
  Cmax at 5 days: 7790 ng/mL
  AUC(0-t): 44200 ng·h/mL
  AUC: 77400 ng·h/mL
In vivo pharmacokinetics; female, golden Syrian, hamster, plasma, hamsters, oral 25 mg/kg qd, 5 days, read-out: Cmax (Day 1)
  Cmax: 4560 ng/mL
In vivo pharmacokinetics; female, golden Syrian, hamster, plasma, hamsters, oral 50 mg/kg, single dose on day 1 only
  AUC(0-t): 145000 ng·h/mL
In vivo pharmacokinetics; female, golden Syrian, hamster, plasma, hamsters, oral 50 mg/kg, single dose on day 1 only, read-out: Cmax (Day 1)
  Cmax: 13200 ng/mL
In vivo pharmacokinetics; female, golden Syrian, plasma, Hamster, oral 12.5 mg/kg
  Tmax: 2.7 h
In vivo pharmacokinetics; female, golden Syrian, plasma, Hamster, oral 12.5 mg/kg, read-out: Apparent t1/2 (converted)
  half-life: 2.6 h
In vivo pharmacokinetics; female, golden Syrian, plasma, Hamster, oral 12.5 mg/kg, read-out: Cmax
  Cmax: 2870 ng/mL
In vivo pharmacokinetics; female, golden Syrian, plasma, Hamster, oral 12.5 mg/kg, read-out: Plasma AUC0-∞
  AUC(0-inf): 21200 ng·h/mL
In vivo pharmacokinetics; hamsters, oral 12.5 mg/kg qd, 5 days
  Cmax (Day 1): 2870 ng/mL
[1]
  remaining activity at 10 µM: 81.9%
μ (MOP)
  remaining activity at 10 µM: 94.3%
ETA
  remaining activity at 10 µM: 103%
A2A
  remaining activity at 10 µM: 83.8%
GR
  remaining activity at 10 µM: 93%
D1
  remaining activity at 10 µM: 63.1%
5-HT2A
  remaining activity at 10 µM: 93.9%
5-HT3
  remaining activity at 10 µM: 105%
5-HT2B
  remaining activity at 10 µM: 81.4%
κ (KOP)
  remaining activity at 10 µM: 90.6%
M3
  remaining activity at 10 µM: 98.5%
Dopamine transporter
  remaining activity at 10 µM: 60.6%
α2A
  remaining activity at 10 µM: 60.3%
CB2
  remaining activity at 10 µM: 96.1%
CB1
  remaining activity at 10 µM: 104%
MAO-A
  remaining activity at 10 µM: 94.3%
β1
  remaining activity at 10 µM: 113%
CCK1 (CCKA)
  remaining activity at 10 µM: 126%
5-HT1B
  remaining activity at 10 µM: 91.4%
β2
  remaining activity at 10 µM: 102%
α1A
  remaining activity at 10 µM: 25.1%
[2]
  mutagenic potential (AMES), in words: did not show intrinsic mutagenic potential
PDE4D2; [5]
  remaining activity at 10 µM: 27.1%
PDE4D2; human PDE4D2
  IC50: 6.67 µM
COX1
  remaining activity at 10 µM: 115%
COX2
  remaining activity at 10 µM: 137%
PDE3A; [5]
  remaining activity at 10 µM: 30.1%
PDE3A; human PDE3A
  IC50: 3.36 µM
acetylcholinesterase
  remaining activity at 10 µM: 96.8%
Lck kinase
  remaining activity at 10 µM: 100%
